In paper PMC7358525, “Characterization of PF-6142, a Novel, Non-Catecholamine Dopamine Receptor D1 Agonist, in Murine and Nonhuman Primate Models of Dopaminergic Activation” (Frontiers in Pharmacology, 2020):

What was measured:
Assay type in all cases: in vivo
[1] = test system: mouse locomotor activity; assay: Mouse locomotor activity (LMA)
Method: Locomotor activity data were measured by an automated infrared photo-beam system in sound attenuating chambers controlled by Versamax® software, provided by Accuscan Instruments Inc. (Columbus, Ohio), which quantified beam breaks similar to the methods used previously ([Xu et al., 2000]). To test D1 receptor selectivity in a pharmacologic model, C57BL/6J mice were habituated to the apparatus for 90 min, followed by pretreatment with vehicle or SCH-23390 (0.01, 0.032, 0.1 0.32, s.c.) and returned to the apparatus for 30 min. […] Data were compared against the vehicle group using a repeated measures one-way ANOVA with a Dunnett’s post-test. To test D1 receptor selectivity in a genetic model, DRD1a WT and knockout mice (D1 KO) were habituated to the apparatus for 90 min, pretreated with vehicle or SCH-23390 (0.032 mg/kg, s.c.) and returned to the apparatus for 30 min. […] Data were compared within genotype using a two-way ANOVA with a Dunnett’s post-hoc test versus vehicle treated group.

[2] = test system: MK-801-disrupted paired-pulse facilitation; assay: Paired-pulse facilitation (PPF), CA1/subiculum to mPFC, urethane-anesthetized rat
Method: (§1) Experiments were performed on n=10 adult male Sprague-Dawley rats (275–305 g) under urethane anesthesia (1.5 g/kg, i.p.). The femoral vein was cannulated for i.v. administration of drugs. A stimulation electrode was placed in the CA1/subiculum region (coordinates: A-P = +6.3 mm, M–L = +5.2 mm, D-V = +8.0 mm) using stereotactic methods and unilateral local field potential (LFP) was recorded by a metal monopolar macroelectrode placed into the medial PFC (mPFC; coordinates: A-P = +3.0 mm, M-L = +0.6 mm, D-V = +5.0 mm). […] Evoked responses to the first and the second stimuli were identified (P1 and P2, respectively) and the amount of PPF determined by the formula: (P2 amplitude/P1 amplitude). Waveform averages used to calculate PPF consisted of 60 consecutive stimuli. Five minutes were allowed between administration of each drug dose and the starting of the subsequent average of each 10-min period after each cumulative dose (0.1–1 mg/kg, IV). Disruption in power of LFP delta activity was measured as the percentage of power in low frequency (0–1.8 Hz) irregular activity in the total (0–4 Hz) delta power range. LFP power spectra were determined during periods concurrent with waveform averages and PPF calculation. Statistical significance was determined by means of two-tailed paired Student’s t-test.

[3] = test system: mPFC low frequency delta activity; assay: mPFC low frequency delta field potential oscillation power, anesthetized rat
Method: as §1

[4] = test system: acetylcholine levels in the PFC of WT and D1 KO mice; assay: Prefrontal cortex acetylcholine levels via microdialysis, WT and D1 KO mouse; details: SCH-23390 0.32 mg/kg SC, mice
From the text: Adult male Sprague-Dawley rats (280–360 g) were obtained from Charles-River Laboratories, Raleigh, NC and male C57BL/6J DRD1a WT and D1 DA receptor knockout mice (DRD1a-905781) were obtained from The Jackson Laboratories (Bar Harbor, ME). Animals were housed on a 12-h light/dark cycle with free access to food and water and allowed to acclimate for at least 5 d after arrival. Aseptic technique was used during the surgical procedure in order to prevent infection. On the day of the procedure animals were anesthetized with isoflurane (4%) and their heads shaved. The animals were then placed into a Kopf stereotaxic frame, the surgical area disinfected by swabbing with Provodine solution, and the area isolated with a sterile surgical drape. Anesthesia was maintained with isoflurane (2.5%–3%) delivered through a nose cone using a Univentor 400 anesthesia unit. Animals were given a 0.1 ml subcutaneous (s.c.) injection of Metacam (NSAID, meloxicam, 5 mg/ml, Boehringer Ingelheim) as a post-operative analgesic. Marcaine (bupivacaine, 0.5%, Hospira, Lake Forest, IL), a long acting local anesthetic, was administered s.c. at the surgical area to minimize pain and discomfort.
A 1.5–2 cm incision was made along the midline of the skull, beginning from a point just behind the eyes and running posterior. The skin was retracted with hemostats and the skull was further exposed using blunt dissection with cotton swabs. Bleeding capillaries were cauterized, and the skull dried with a sterile gauze sponge.
A microdialysis guide cannula [Bioanalytical Systems Inc (BAS), West Lafayette, IN, part # MD-2251] was placed into a guide holder on the stereotaxic frame and positioned over “Bregma”. The guide cannula was positioned over the PFC (A-P, +3.2 mm; M-L, +0.7 mm, left, relative to bregma) and the location marked on the skull. Using a 0.7 mm burr, a hole was made in the skull at the cannula position. […]
For conventional analysis, ACh was analyzed by high performance liquid chromatography (HPLC) utilizing a modification of the BAS ACh-choline assay kit (BAS part # MF-8910). […]

[5] = test system: conditioned avoidance responding; assay: Rat conditioned avoidance response (CAR)
Method: The CAR assay was performed under similar conditions previously described ([Marquis et al., 2011]) at WuXiAppTec Inc. (Delin Rd. #90, Waigaoquiao Free Trade Zone, Shanghai 200131, China). For this study, adult male Fisher-344 rats were trained and tested in a two-way active avoidance apparatus with MED-PC software (MED Associates, St. Albans, VT, USA).
Briefly, subjects were handled and acclimated to the shuttle boxes for 2 d prior to training sessions. During training sessions, subjects were trained to avoid an electric footshock by moving to the adjacent, non-stimulus side of the shuttle box upon presentation of tone + light stimuli which preceded the presentation of the footshock (0.6 mA, 10 s duration) by 10 s. For this assay an avoidance was defined as moving to the adjacent compartment during the tone+light presentation that preceded the shock, an escape was defined as moving to the adjacent compartment upon presentation of the shock, and an escape failure was defined as a lack of relocation to the adjacent compartment throughout the presentation of the shock. Subjects received 30 trials of training per day for 5 d. Subjects with ≥ 80% avoidance responses on two consecutive days with no escape failures, were considered qualified for testing, and were randomized across treatment groups (n=8–9 per treatment group). […] Avoidance responding was calculated as % of the number of total trials in which an avoidance occurred. Data were calculated for each animal and compared across treatment groups using one-way ANOVA with Dunnett’s post-test versus the vehicle + vehicle treated group.

[6] = test system: prepulse inhibition of startle; assay: Mouse prepulse inhibition (PPI) and acoustic startle; details: risperidone 0.56 mg/kg s.c., C57BL/6J mice
Method: Drug and behaviorally naïve adult male C57BL/6J mice (9–11 weeks of age; n=8 per dose group) were used for PPI experiments. Subjects were tested individually in SR-Lab acoustic startle chambers (San Diego Instruments, San Diego CA, USA) equipped with a restrainer mounted atop a piezoelectric accelerometer which measured transduced movement in response to the presentation of audio stimuli presented through a speaker mounted 20 cm above the animal. Subjects were acclimated to an anteroom adjacent to the testing room at minimum 60 min prior to testing. Test sessions began with a 5 min acclimation period to background noise (65 dB) followed by presentation of six randomized repetitions of the 120 dB startle stimulus (40 ms duration) presented alone or paired in combination with a pre-pulse stimulus of 68, 72, or 74 db (20 msec in duration) presented 80 msec prior to the 120 dB startle stimulus, which was equivalent to +3, +7, and +9 db over background noise, respectively. Data were also recorded for no stimulus values to evaluate background level of response. The inter-trial interval between stimulus presentations was randomized and ranged from 10 to 20 s. Test compounds were administered 30 min (s.c.) prior to testing. […] Percent PPI was calculated for each individual subject as the relative change in the 120 dB startle response in the presence of each prepulse intensity using the formula: 100-((prepulse-pulse)/pulse)*100 as previously described ([Ralph-Williams et al., 2003]).
The experiment was analyzed using a two-way mixed model ANOVA (lme4 library in R software). The model included prepulse stimulus intensity levels, treatment (as all combinations of pre-treatment and treatment), and their interaction as fixed factors and random intercept, random slope for each animal as random factors. […] In order to adjust for multiple hypothesis testing we used false discover rate method which controls the expected proportion of false discoveries among the rejected hypotheses. For all statistical tests, p < 0.05 between groups was considered significant.

SMILES: NC[C@@H]1O[C@H](C23CC4CC(CC(C4)C2)C3)Cc2c1ccc(O)c2O [A-77636, reference compound]
- locomotor activity, five consecutive days of dosing ([1]; 3.2 mg/kg s.c. daily, CD-1 mice): increased locomotor activity

SMILES: C[C@]12N[C@H](Cc3ccccc31)c1ccccc12 [MK-801]
- increase of P1 response amplitude ([2]; MK-801 0.1 mg/kg IV): 44%
- increase of P2 response amplitude ([2]; MK-801 0.1 mg/kg IV): 10%
- PPF ([2]; MK-801 0.1 mg/kg IV (p=0.04)): significant decrease
- low frequency (0-1.8 Hz) irregular delta activity ([3]; MK-801 0.1 mg/kg IV (p=0.01)): significant increase

SMILES: CN1CCc2cc(Cl)c(O)cc2[C@@H](c2ccccc2)C1 [SCH-23390, reference compound]
- effect on PF-6142-increased activity in WT mice ([1]; SCH-23390 0.032 mg/kg s.c. pretreatment): attenuated
- effect on PF-6142 (10 mg/kg s.c.)-stimulated activity ([1]; SCH-23390 pretreatment 0.01, 0.032, 0.1, 0.32 mg/kg s.c.): blocked
- baseline P1 and P2 response amplitudes ([2]; SCH-23390 0.32 mg/kg IV): no effect
- control PPF ([2]; SCH-23390 0.32 mg/kg IV (p=0.06)): no impact
- effect on PF-6142 (1-3 mg/kg IV) reversal of MK-801 effects on PPF ([2]; SCH-23390 0.32 mg/kg IV pretreatment): block
- mPFC low frequency delta activity ([3]; SCH-23390 0.32 mg/kg IV alone (p=0.19)): no significant effect
- effect on PF-6142-induced increase in PFC ACh level [4]: attenuated

SMILES: Cc1nc2n(c(=O)c1CCN1CCC(c3noc4cc(F)ccc34)CC1)CCCC2 [risperidone, reference compound]
- mean % avoidance responses ([5]; risperidone 0.1 mg/kg s.c.): 83.33%
- mean % avoidance responses ([5]; risperidone 0.56 mg/kg s.c. (p<0.001)): 6.875%
- %PPI [6]: produced an increase in %PPI
